Source: US12109284B2, “Compositions comprising fluoride and calcium and method for preparing them” (DENTHERAPY LTD, priority 2016, dated 2024)

What was measured:
[1] = Microindentation cycling re-mineralisation model (Example 4); set-up: species or system human
Description: Citric acid eroded human enamel specimens were placed into a cycling re-mineralisation model where they were cycled between a treatment, artificial saliva and citric acid five times a day over five days. Three different treatments were tested and were: 1. 2% OPN formulation containing 500 ppm fluoride. 2. 500 ppm fluoride solution. 3. Deionised water. At the end of each of the five days the micro hardness of the enamel was measured by Vickers microindentation to determine the extent of the re-mineralisation of the enamel lesions.
The microhardness of the enamel was determined by indentation using a Vickers diamond-tip indenter. Each hardness value was determined from the average of ten individual measurements made centrally on each enamel specimen using 1.9N force over an indent time of 20 seconds. At the start of each set of measurements a calibration check was performed using a standard metal block to ensure the reproducibility of microhardness was within 3% of the test block micro hardness.

[2] = cited from earlier work; for Buffer range: pH

Row | Compound | Trend in remineralisation (microhardness ranking) ([1]; Day 1) | Trend in remineralisation (microhardness ranking) ([1]; Day 2) | Trend in remineralisation (microhardness ranking) ([1]; Day 3) | Trend in remineralisation (microhardness ranking) ([1]; Day 4 (probability 0.06)) | Trend in remineralisation (microhardness ranking) ([1]; Day 5) | Increase in hardness of eroded enamel compared to deionised water ([1]; all time points) | pKa [2] | Buffer range [2]
1 | [F-].[Na+] [NaF, sodium fluoride] | OPN = NaF > DI water | OPN = NaF > DI water | NaF = OPN > DI water | OPN = NaF > DI water | OPN > NaF > DI water | statistically superior to deionised water | – | –
2 | tris(hydroxymethyl)aminomethane | – | – | – | – | – | – | 8.97 | 7.5-9.5
3 | O=C([O-])O.[Na+] [sodium bicarbonate] | – | – | – | – | – | – | – | 5.1-8.0
